The source of these data is patent publication US9718785B2, “1,3-Disubstituted cyclopentane derivatives” (MERCK PATENT GMBH, priority 2013, dated 2017).

The target of the experiment is T1, human recombinant full-length fatty acid synthase (FASN) (Homo sapiens, UniProt P49327).
T1 construct: 40 nM human recombinant full-length fatty acid synthase (produced in-house in SF9 cells); made in house; host or cells: SF9 insect cells
Nature of the experiment: Biochemical activity testing of human fatty acid synthase FASN (NADPH fluorescence intensity enzyme assay). Particulars: for IC50: human recombinant FASN, enzyme assay. The source says: Biochemical Activity Testing of Human Fatty Acid Synthase FASN
Fatty acid synthase FASN is a multifunctional enzyme with seven catalytic activities thereby synthesising long chain fatty acids especially palmitoyl-CoA in the presence of co-factor NADPH starting from the substrates acetyl-CoA and malonyl-CoA. The reductive synthesis is realized by the oxidation of NADPH to NADP. Since NADPH has a high fluorescence intensity quantum yield compared to NADP with excitation at 340 nm and emission at 460 nm, the reaction can be monitored via the decrease in fluorescence intensity. The biochemical FASN activity testing was performed as 384 well two-time-point kinetic fluorescence intensity assay format in Greiner low volume medium binding 384-well black microtiter plates in a total assay volume of 8 μl and was used for high throughput screen. In each well 3 μl 40 nM human recombinant full-length fatty acid synthase (produced in-house in SF9 cells) were dispensed in the following assay buffer: 50 mM potassium phosphate buffer pH 7.0, 0.005% (w/v) BSA, 2 mM Glutathione, 0.02% Tween-20. Then 2 μl of 200 μM NADPH in assay buffer were added, followed by the addition of the test compounds in 10 dilution concentrations starting with 30 μM (final concentration) to get a final DMSO content of 1% (v/v). The mixture was incubated for at least 15 min at room temperature. After the pre-incubation the enzymatic reaction was started by the addition of 2 μl substrate solution (80 μM acetyl-CoA, 240 μM malonyl-CoA). A first fluorescence intensity measurement (time point one) was performed with an Envision multimode reader (Perkin Elmer LAS Germany GmbH) at excitation wavelength 340 nm (lamp mode) and emission wavelength 460 nm. The reaction was incubated for 30 minutes at room temperature. After this the fluorescence intensity was measured again in the Envision using the same parameters as described above (second time point measurement). The data were analysed by subtracting the first time point measurement value from the second time point measurement value (after the enzymatic reaction). The differences of the emission signals were determined. These reflect directly the conversion rate of NADPH. The full value used was the inhibitor-free reaction. A pharmacological zero value was used like GSK837149A (Sigma-Aldrich) in a final concentration of 5-10 μM. The inhibitory values (IC50) were determined using either the program Symyx Assay Explorer® or Condosseo® from GeneData.

T1 sequence (P49327 whole entry): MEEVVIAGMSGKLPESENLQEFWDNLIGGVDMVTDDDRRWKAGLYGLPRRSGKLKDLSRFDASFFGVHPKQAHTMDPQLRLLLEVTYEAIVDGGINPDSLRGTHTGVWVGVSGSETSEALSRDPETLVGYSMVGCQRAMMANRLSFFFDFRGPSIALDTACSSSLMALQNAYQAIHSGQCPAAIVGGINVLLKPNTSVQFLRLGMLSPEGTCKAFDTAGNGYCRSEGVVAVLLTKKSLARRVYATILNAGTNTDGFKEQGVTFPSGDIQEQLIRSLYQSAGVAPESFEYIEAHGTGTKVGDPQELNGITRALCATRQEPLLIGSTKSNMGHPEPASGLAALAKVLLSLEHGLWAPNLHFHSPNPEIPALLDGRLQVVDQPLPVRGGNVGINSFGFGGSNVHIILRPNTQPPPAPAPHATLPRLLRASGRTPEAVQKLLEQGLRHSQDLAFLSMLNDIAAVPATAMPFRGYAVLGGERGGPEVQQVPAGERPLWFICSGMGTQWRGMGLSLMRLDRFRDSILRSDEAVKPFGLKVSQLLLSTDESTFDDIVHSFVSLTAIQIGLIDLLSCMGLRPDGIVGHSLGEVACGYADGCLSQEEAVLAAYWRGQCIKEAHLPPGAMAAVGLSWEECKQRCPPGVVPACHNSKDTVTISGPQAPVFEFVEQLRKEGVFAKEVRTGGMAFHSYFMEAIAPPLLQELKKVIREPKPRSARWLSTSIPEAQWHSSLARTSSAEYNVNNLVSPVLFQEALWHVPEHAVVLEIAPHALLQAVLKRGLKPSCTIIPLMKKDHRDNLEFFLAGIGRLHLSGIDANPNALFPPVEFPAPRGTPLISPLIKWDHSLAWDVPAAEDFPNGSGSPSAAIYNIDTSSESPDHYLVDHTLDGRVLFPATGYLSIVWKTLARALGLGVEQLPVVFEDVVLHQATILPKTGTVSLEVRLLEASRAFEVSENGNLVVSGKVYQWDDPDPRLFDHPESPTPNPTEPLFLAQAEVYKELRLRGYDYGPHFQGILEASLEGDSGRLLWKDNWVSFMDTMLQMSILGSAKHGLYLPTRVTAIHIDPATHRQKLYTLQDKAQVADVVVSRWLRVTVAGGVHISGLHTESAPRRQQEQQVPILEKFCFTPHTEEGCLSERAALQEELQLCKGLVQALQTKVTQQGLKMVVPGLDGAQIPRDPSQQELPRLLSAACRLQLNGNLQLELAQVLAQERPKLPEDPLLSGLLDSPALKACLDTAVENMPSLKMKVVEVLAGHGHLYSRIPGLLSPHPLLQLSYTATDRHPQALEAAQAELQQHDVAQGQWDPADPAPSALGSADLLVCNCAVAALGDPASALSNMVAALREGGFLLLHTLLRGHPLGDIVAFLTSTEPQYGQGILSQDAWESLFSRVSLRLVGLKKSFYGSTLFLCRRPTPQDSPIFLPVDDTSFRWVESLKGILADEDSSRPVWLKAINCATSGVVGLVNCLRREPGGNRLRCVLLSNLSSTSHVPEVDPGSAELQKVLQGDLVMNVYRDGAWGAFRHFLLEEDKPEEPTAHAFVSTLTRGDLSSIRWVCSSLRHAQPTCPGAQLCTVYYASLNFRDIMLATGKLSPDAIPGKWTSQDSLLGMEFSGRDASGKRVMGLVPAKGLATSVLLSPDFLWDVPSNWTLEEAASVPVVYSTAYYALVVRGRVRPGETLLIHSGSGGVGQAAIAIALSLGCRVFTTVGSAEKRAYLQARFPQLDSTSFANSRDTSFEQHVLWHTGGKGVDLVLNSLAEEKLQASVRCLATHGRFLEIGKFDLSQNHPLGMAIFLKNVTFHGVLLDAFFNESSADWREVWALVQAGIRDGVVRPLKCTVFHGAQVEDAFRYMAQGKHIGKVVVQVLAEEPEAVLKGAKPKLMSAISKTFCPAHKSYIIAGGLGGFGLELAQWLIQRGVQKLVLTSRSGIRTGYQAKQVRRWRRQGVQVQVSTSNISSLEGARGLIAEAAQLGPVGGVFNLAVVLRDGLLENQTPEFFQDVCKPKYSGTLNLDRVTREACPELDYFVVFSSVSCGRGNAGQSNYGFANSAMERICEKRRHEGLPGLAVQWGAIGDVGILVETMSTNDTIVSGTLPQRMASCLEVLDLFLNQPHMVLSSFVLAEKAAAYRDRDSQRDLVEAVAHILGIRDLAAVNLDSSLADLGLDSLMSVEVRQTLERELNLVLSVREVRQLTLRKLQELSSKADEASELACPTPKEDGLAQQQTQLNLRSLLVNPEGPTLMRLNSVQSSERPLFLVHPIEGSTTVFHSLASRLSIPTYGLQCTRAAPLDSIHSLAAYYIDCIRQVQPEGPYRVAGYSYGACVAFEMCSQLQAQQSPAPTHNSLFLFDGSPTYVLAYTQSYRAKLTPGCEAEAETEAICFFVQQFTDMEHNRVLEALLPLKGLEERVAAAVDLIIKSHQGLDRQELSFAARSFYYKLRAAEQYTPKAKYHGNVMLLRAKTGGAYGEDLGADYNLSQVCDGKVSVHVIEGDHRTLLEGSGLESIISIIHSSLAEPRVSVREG

A word on the IC50: it is the point on the concentration scale where inhibition reaches its midpoint. In the case of `CCNC(=O)[C@H]1CC[C@@H](n2cncc2-c2ccc(-c3nc4ccccc4o3)cc2)C1` [Compound A1, (1S,3R)-3-[5-(4-benzooxazol-2-yl-phenyl)-imidazol-1-yl]-cyclopentanecarboxylic acid ethylamide], the IC50 was under 300 nM.

As for `CCNC(=O)[C@H]1CC[C@@H](n2cncc2-c2ccc(-c3ccccc3)cc2)C1` [Compound A2, (1S,3R)-3-(5-biphenyl-4-yl-imidazol-1-yl)-cyclopentanecarboxylic acid ethylamide], the IC50 is under 300 nM.

For the compound `CCNC(=O)[C@H]1CC[C@@H](n2cncc2-c2ccc(-c3ccc(Cl)cc3)cc2)C1` [Compound A3, (1S,3R)-3-[5-(4′-Chloro-biphenyl-4-yl)-imidazol-1-yl]-cyclopentanecarboxylic acid ethylamide], the IC50 was under 300 nM.

As for `CC1(NC(=O)[C@H]2CC[C@@H](n3cncc3-c3ccc(-c4nc5ccccc5o4)cc3)C2)CC1` [Compound A4, (1S,3R)-3-[5-(4-benzoxazol-2-yl-phenyl)-imidazol-1-yl]-cyclopentanecarboxylic acid (1-methyl-cyclopropyl)-amide], the IC50 is under 300 nM.

`CC1(NC(=O)[C@H]2CC[C@@H](n3cncc3-c3ccc(-c4cnc5[nH]ccc5c4)cc3)C2)CC1` [Compound A5, (1S,3R)-3-{5-[4-(1H-pyrrolo[2,3-b]pyridin-5-yl)-phenyl]-imidazol-1-yl}-cyclopentanecarboxylic acid (1-methyl-cyclopropyl)-amide]: the “Inhibition of FASN (enzyme assay)” value (at 3 μM) is listed as “Inhibition: −44%”.

For `CC1(NC(=O)[C@H]2CC[C@@H](n3cncc3-c3ccc(-c4ccc5ncsc5c4)cc3)C2)CC1` [Compound A6, (1S,3R)-3-[5-(4-benzothiazol-6-yl-phenyl)-imidazol-1-yl]-cyclopentanecarboxylic acid (1-methyl-cyclopropyl)-amide amide], the IC50 was under 300 nM.

On to `CC1(NC(=O)[C@H]2CC[C@@H](n3cncc3-c3ccc(-c4ccc5cc[nH]c5c4)cc3)C2)CC1` [Compound A7, (1S,3R)-3-{5-[4-(1H-indol-6-yl)-phenyl]-imidazol-1-yl}-cyclopentanecarboxylic acid (1-methyl-cyclopropyl)-amide], for which the IC50 was under 300 nM.

For `CC1(NC(=O)[C@H]2CC[C@@H](n3cncc3-c3ccc(-c4cc5cc(F)ccc5[nH]4)cc3)C2)CC1` [Compound A8, (1S,3R)-3-{5-[4-(5-fluoro-1H-indol-2-yl)-phenyl]-imidazol-1-yl}-cyclopentanecarboxylic acid (1-methyl-cyclopropyl)-amide], the IC50 lay in the range of 300 to 3000 nM.

Take `CC1(NC(=O)[C@H]2CC[C@@H](n3cncc3-c3ccc(-c4ccc5[nH]nnc5c4)cc3)C2)CC1` [Compound A9, (1S,3R)-3-{5-[4-(1H-benzotriazol-5-yl)-phenyl]-imidazol-1-yl}-cyclopentanecarboxylic acid (1-methyl-cyclopropyl)-amide]: the IC50 is under 300 nM.

Regarding `CC1(NC(=O)[C@H]2CC[C@@H](n3cncc3-c3ccc(-c4ccc5[nH]ccc5c4)cc3)C2)CC1` [Compound A10, (1S,3R)-3-{5-[4-(1H-indol-5-yl)-phenyl]-imidazol-1-yl}-cyclopentanecarboxylic acid (1-methyl-cyclopropyl)-amide], the IC50 was under 300 nM.

In the case of `CC1(NC(=O)[C@H]2CC[C@@H](n3cncc3-c3ccc(-c4cccc5[nH]ncc45)cc3)C2)CC1` [Compound A11, (1S,3R)-3-{5-[4-(1H-indazol-4-yl)-phenyl]-imidazol-1-yl}-cyclopentanecarboxylic acid (1-methyl-cyclopropyl)-amide], the IC50 was under 300 nM.

On to `CC1(NC(=O)[C@H]2CC[C@@H](n3cncc3-c3ccc(-c4ccc(C#N)cc4)cc3)C2)CC1` [Compound A12, (1S,3R)-3-[5-(4′-cyano-biphenyl-4-yl)-imidazol-1-yl]-cyclopentanecarboxylic acid (1-methyl-cyclopropyl)-amide], for which the IC50 was 300 to 3000 nM.

For the compound `CCNC(=O)[C@H]1CC[C@@H](n2nncc2-c2ccc(-c3nc4ccccc4o3)cc2)C1` [Compound A13, (1S,3R)-3-[5-(4-benzoxazol-2-yl-phenyl)-[1,2,3]triazol-1-yl]-cyclopentanecarboxylic acid ethylamide], the half-maximal inhibitory concentration (IC50) is under 300 nM.

Take `CCNC(=O)[C@H]1CC[C@@H](n2nncc2-c2ccc(-c3ccc(Cl)cc3)cc2)C1` [Compound A14, (1S,3R)-3-[5-(4′-chloro-biphenyl-4-yl)-[1,2,3]triazol-1-yl]-cyclopentanecarboxylic acid ethylamide]: the IC50 is under 300 nM.

In the case of `CCNC(=O)[C@H]1CC[C@@H](n2nncc2-c2ccc(-c3ccc(C#N)cc3)cc2)C1` [Compound A15, (1S,3R)-3-[5-(4′-cyano-biphenyl-4-yl)-[1,2,3]triazol-1-yl]-cyclopentanecarboxylic acid ethylamide], the IC50 was under 300 nM.

In the case of `CCNC(=O)[C@H]1CC[C@@H](n2nncc2-c2ccc(-c3ccc4cc[nH]c4c3)cc2)C1` [Compound A16, (1S,3R)-3-{5-[4-(1H-indol-6-yl)-phenyl]-[1,2,3]triazol-1-yl}-cyclopentanecarboxylic acid ethylamide], the IC50 was under 300 nM.

In the case of `CCC(=O)N[C@H]1CC[C@@H](n2cncc2-c2ccc(-c3nc4ccccc4o3)cc2)C1` [Compound A19, N-{(1S,3R)-3-[5-(4-benzoxazol-2-yl-phenyl)-imidazol-1-yl]-cyclopentyl}-propionamide], the IC50 was under 300 nM.

Turning to `CCC(=O)N[C@H]1CC[C@@H](n2cncc2-c2ccc(-c3nc4ccccc4s3)cc2)C1` [Compound A20, N-{(1S,3R)-3-[5-(4-benzothiazol-2-yl-phenyl)-imidazol-1-yl]-cyclopentyl}-propionamide], the IC50 is under 300 nM.

Take `CCC(=O)N[C@H]1CC[C@@H](n2cncc2-c2ccc(-c3ccc(Cl)cc3)cc2)C1` [Compound A21, N-{(1S,3R)-3-[5-(4′-chloro-biphenyl-4-yl)-imidazol-1-yl]-cyclopentyl}-propionamide]: the IC50 is under 300 nM.

Take `CCC(=O)N[C@H]1CC[C@@H](n2cncc2-c2ccc(-c3cccc4[nH]ncc34)cc2)C1` [Compound A22, N-((1S,3R)-3-{5-[4-(1H-indazol-4-yl)-phenyl]-imidazol-1-yl}-cyclopentyl)-propionamide]: the IC50 was under 300 nM.

For `CC(=O)N[C@H]1CC[C@@H](n2nncc2-c2ccc(-c3nc4ccccc4o3)cc2)C1` [Compound A24, N-{(1S,3R)-3-[5-(4-benzoxazol-2-yl-phenyl)-[1,2,3]triazol-1-yl]-cyclopentyl}-acetamide], the IC50 is under 300 nM.

Take `CCC(=O)N[C@H]1CC[C@@H](n2nncc2-c2ccc(-c3ccc(Cl)cc3)cc2)C1` [Compound A25, N-{(1S,3R)-3-[5-(4′-chloro-biphenyl-4-yl)-[1,2,3]triazol-1-yl]-cyclopentyl}-propionamide]: the IC50 was under 300 nM.

Regarding `CCC(=O)N[C@H]1CC[C@@H](n2nncc2-c2ccc(-c3cccc4[nH]ncc34)cc2)C1` [Compound A26, N-((1S,3R)-3-{5-[4-(1H-indazol-4-yl)-phenyl]-[1,2,3]triazol-1-yl}-cyclopentyl)-propionamide], the IC50 is under 300 nM.

Take `CCC(=O)N[C@H]1CC[C@@H](n2nncc2-c2ccc(-c3ccc4[nH]ccc4c3)cc2)C1` [Compound A27, N-((1S,3R)-3-{5-[4-(1H-indol-5-yl)-phenyl]-[1,2,3]triazol-1-yl}-cyclopentyl)-propionamide]: the IC50 is under 300 nM.

`CCC(=O)N[C@H]1CC[C@@H](n2nncc2-c2ccc(-c3nc4ccccc4s3)cc2)C1` [Compound A28, N-{(1S,3R)-3-[5-(4-benzothiazol-2-yl-phenyl)-[1,2,3]triazol-1-yl]-cyclopentyl}-propionamide]: the IC50 is under 300 nM.

Take `CCNC(=O)[C@H]1CC[C@@H](n2cnnc2-c2ccc(-c3nc4ccccc4o3)cc2)C1` [Compound A29, (1S,3R)-3-[3-(4-benzoxazol-2-yl-phenyl)-[1,2,4]triazol-4-yl]-cyclopentanecarboxylic acid ethylamide]: the IC50 is under 300 nM.

On to `CCNC(=O)[C@H]1CC[C@@H](n2cnnc2-c2ccc(-c3ccc4cc[nH]c4c3)cc2)C1` [Compound A30, (1S,3R)-3-{3-[4-(1H-indol-6-yl)-phenyl]-[1,2,4]triazol-4-yl}-cyclopentanecarboxylic acid ethylamide], for which the IC50 is under 300 nM.

With `CCNC(=O)[C@H]1CC[C@@H](n2cnnc2-c2ccc(-c3ccc(Cl)cc3)cc2)C1` [Compound A31, (1S,3R)-3-[3-(4′-chloro-biphenyl-4-yl)[1,2,4]triazol-4-yl]-cyclopentanecarboxylic acid ethylamide], the IC50 is under 300 nM.
